Values quoted from earlier work as cited in US10858388B2, “Selective progesterone receptor modulator (SPRM) regimen” (BAYER PHARMA AKTIENGESELLSCHAFT, priority 2015, dated 2020).

Key:
[1] = system: women with excessive uterine bleeding due to the presence of fibroids; settings: 5 mg Ulipristal Acetate, cited from earlier work
fibroids = settings: in vivo; cited from earlier work
endometrium = settings: relatively low concentration, WO2009/134178; cited from earlier work

SMILES: CC(=O)O[C@]1(C(C)=O)CC[C@H]2[C@@H]3CCC4=CC(=O)CCC4=C3[C@@H](c3ccc(N(C)C)cc3)C[C@@]21C [Ulipristal Acetate]
- ≤2 ml, indicating Amenorrhea - (%), EoT 13 Weeks ([1]; 13 weeks): 75%
- ≤2 ml, indicating Amenorrhea - no./total no., EoT 13 Weeks ([1]; 13 weeks): 70/93
- Amenorrhea (<2 ml) at EoT (%) 12 Weeks ([1]; data from Jacques Donnez et al): ~75%

SMILES: CC#C[C@]1(O)CC[C@H]2[C@@H]3CCC4=CC(=O)CCC4=C3[C@@H](c3ccc(N(C)C)cc3)C[C@@]21C [mifepristone]
- Size of fibroids and related symptoms (fibroids): decrease the size of fibroids and related symptoms

SMILES: COCC(=O)[C@@]1(OC(C)=O)CC[C@H]2[C@@H]3CCC4=CC(=O)CCC4=C3[C@@H](c3ccc(N(C)C)cc3)C[C@@]21C [CDB-4124]
- Endometrium during treatment (endometrium): substantial thickening of the endometrium
